In one assay the test system is GLP-1R-SmBiT. The assay is described as follows: Mini-G protein/β-arrestin 2 recruitment NanoBiT, GLP-1R. In kind it is cell-based. The following applies: 100 nM GLP-1, 30 minutes, n = 5. An excerpt: Here the SmBiT was cloned in frame at the C-terminus of the GLP-1R and the GIPR by substitution of the Tango sequence on FLAG-tagged GLP-1R-Tango or GIPR-Tango (a gift from Prof. Bryan Roth, University of North Carolina, USA; Addgene plasmids #66291 and #66294), respectively. Mini-Gs, mini-Gq, and mini-Gi plasmids, tagged at the N-terminus with LgBiT, were a gift from Prof. Nevin Lambert, Medical College of Georgia, USA. For β-arrestin 2 recruitment assays, β-arrestin 2 fused at the N-terminus to LgBiT (LgBiT-β-arrestin 2; Promega, plasmid no. CS1603B118) was chosen as it has previously been used successfully with other class B GPCRs. […]
All NanoBiT and NanoBRET readings were obtained in a Flexstation 3 plate reader. […] Readings were normalized to well baseline and then to average vehicle-induced signal to establish the agonist-induced effect. AUCs from response curves were calculated for each agonist concentration and fitted to four-parameter curves using Prism 9 (GraphPad).
Figure 5. […] (A) Kinetics of Gαs, Gαq, Gαi, and β-arrestin 2 recruitment to the GLP-1R assessed by NanoBiT complementation assay in INS-1 832/3 GLP-1R KO cells transiently expressing GLP-1R-SmBiT and the corresponding mini-G protein subtype or β-arrestin 2. […]

Another assay deals with GIPR-NanoLuc. The assay can be described thus: KRAS-Venus bystander NanoBRET (plasma membrane), GIPR. It counts as cell-based. The following applies: n = 5. An excerpt: GLP-1R-NanoLuc was generated in house by polymerase chain reaction (PCR) cloning of the NanoLuciferase sequence from pcDNA3.1-ccdB-NanoLuc (a gift from Prof. Mikko Taipale; Addgene plasmid # 87067) onto the C-terminus end of the SNAP-GLP-1R vector (CisBio), followed by site-directed mutagenesis of the GLP-1R stop codon. GIPR-NanoLuc was subsequently cloned in house by exchanging the GLP-1R for the GIPR in the GLP-1R-NanoLuc construct. KRAS- and Rab5-Venus plasmids were a gift from Prof. Kevin Pfleger, University of Western Australia. The INS-1 832/3 GLP-1R KO and GIPR KO cells were seeded in 12-well plates and co-transfected with 0.2 µg KRAS-Venus and 0.1 µg GLP-1R- or GIPR-NanoLuc, respectively, or 0.5 µg Rab5-Venus and 0.1 µg GLP-1R- or GIPR-NanoLuc, respectively.
All NanoBiT and NanoBRET readings were obtained in a Flexstation 3 plate reader. Briefly, 24 hours after transfection, cells were detached, resuspended in NanoGlo Live Cell Reagent (Promega) with furimazine (1:20 dilution) and seeded into white 96-well half-area plates. […] Readings were normalized to well baseline and then to average vehicle-induced signal to establish the agonist-induced effect. AUCs from response curves were calculated for each agonist concentration and fitted to four-parameter curves using Prism 9 (GraphPad).
Figure 2. Endosomal vs plasma membrane localization of GLP-1R compared with GIPR in beta cells. […] Data are mean ± SEM, compared by paired t tests or two-way ANOVA with Sidak's test; *P < .05.

Assay [1] deals with calcium response in purified WT mouse islets. The assay is described as follows: Calcium assay, WT mouse islets. The following applies: Cal-520 AM; 100 nM; n = 4. It counts as cell-based. How it is done: Nondiabetic mice of both sexes were used for islet isolation. Briefly, pancreata were infused via the common bile duct with RPMI-1640 medium containing 1 mg/mL collagenase from Clostridium histolyticum (Nordmark Biochemicals), dissected, and incubated in a water bath at 37 °C for 10 minutes. Islets were subsequently washed and purified using a Histopaque gradient (Histopaque-1119, 11191, Sigma-Aldrich, and Histopaque-1083, 10831, Sigma-Aldrich). Isolated islets were allowed to recover overnight at 37 °C in 5% CO2 in RPMI-1640 supplemented with 10% FBS and 1% penicillin/streptomycin. […]
Imaging of INS-1 832/3 cells or whole-islet Ca^2+ dynamics was performed as follows: cells or Matrigel-encased islets from individual animals were loaded with the Ca^2+ responsive dye Cal-520 AM (AAT Bioquest), pre-incubated for 1 hour in KRBH G6, and imaged in MatTek glass bottom dishes every 6 second at 488 nm using a Nikon Eclipse Ti microscope with an ORCA-Flash 4.0 camera (Hamamatsu) and Metamorph software (Molecular Devices) while maintained at 37 °C on a heated stage. Raw fluorescence intensity traces from cell-occupied areas or islet ROIs were extracted using Fiji. Responses were plotted relative to the average fluorescence intensity during the 6 mM glucose baseline period, before agonist addition. […]

The subject of a further assay is SNAP-tagged human GIPR. The assay is described as follows: Colocalization with Rab5-Venus, SNAP-GIPR. It counts as cell-based. The following applies: 100 nM GIP. An excerpt:
To determine the intracellular destination of internalized GLP-1Rs/GIPRs more precisely, we performed concentration response bystander NanoBRET assays using C-terminal NanoLuc-fused SNAP-tagged GLP-1R vs GIPR and either KRAS-Venus (plasma membrane) or Rab5-Venus (early endosome) co-expressed transiently in INS-1 832/3 cells (Fig. 2).

For another assay, the system named is INS-1 832/3 WT cells. The assay can be described thus: Insulin secretion assay, INS-1 832/3 WT cells. In kind it is cell-based, rat. The following applies: 100 nM, 11 mM glucose; WT n = 3. The procedure: At the end of the treatments, the supernatant containing the secreted insulin was collected, centrifuged at 1000g for 3 minutes, and transferred to a fresh tube. To determine total insulin content, cells were lysed using KRBH buffer + 1% w/v BSA + 1% v/v Triton X-100 (Sigma). The lysates were sonicated 3 × 10 seconds in a water bath sonicator and centrifuged at 10 000g for 10 minutes, and the supernatants collected. The samples were stored at −20 °C until the insulin concentration was determined using an Insulin Ultra-Sensitive HTRF Assay kit (62IN2PEG, Cisbio, Codolet, France) according to the manufacturer's instructions.
Figure 7. Functional analysis of GLP-1R vs GIPR signaling in beta cells. […] Data are mean ± SEM, compared by paired t tests; *P < .05; ns, nonsignificant.

“Also recorded” adds a separate entry of the source.

Turning to GLP-1(7-36)NH2, in the assay with GLP-1R-SmBiT, the “Gαi coupling of GLP-1R” value is “minimum coupling” and the “Gαs coupling of GLP-1R” value is recorded as “preferentially coupled to Gαs”.

With GIP(1-42), the “Plasma membrane retention of GIPR compared with GLP-1R” value in the assay on GIPR-NanoLuc (INS-1 832/3 KO cells) is recorded as “increased propensity for plasma membrane retention”. Further, in the assay with GIPR-NanoLuc, the “Maximal internalization response (Emax), GIPR vs GLP-1R” value is “reduced maximal internalization responses” and the “Potency (logEC50), GIPR vs GLP-1R” value is “no changes in potency”. Besides, in assay [1], the “Calcium influx, GIP vs GLP-1, primary islets” value was “significant increase”. For the same substance, in the assay on SNAP-tagged human GIPR, the “Localization of the fraction of internalized GIPRs” value is given as “also localized to Rab5-Venus-positive endosomes” and the SNAP-GIPR localization result is recorded as “a sizable amount of SNAP-GIPR was still present at the plasma membrane”. In addition, the “Insulin secretion, GIP compared with GLP-1” value in the assay with INS-1 832/3 WT cells is recorded as “nonsignificant tendency toward improvement; also recorded: tendency toward increased”.

The values are drawn from publication PMC10016038, “Enhanced Endosomal Signaling and Desensitization of GLP-1R vs GIPR in Pancreatic Beta Cells” (Endocrinology, 2023).
